Assay results published in US9617250B2, “Pyridin-4-yl derivatives” (ACTELION PHARMACEUTICALS LTD., priority 2013, dated 2017).

What was measured:
human S1P3 receptor = human S1P3 receptor (Homo sapiens (Human), UniProt Q99500); assay: GTPγS assay to determine EC50 values, S1P3; assay type: biochemical; conditions: comparison in words
circulating lymphocytes = assay: Assessment of in vivo efficacy: circulating lymphocytes after oral administration; parameters: species or system rat; conditions: 6 h after oral administration of 10 mg/kg, normotensive male Wistar rats, compared to vehicle group
Method: The efficacy of the compounds of Formula (I) is assessed by measuring the circulating lymphocytes after oral administration of 3 to 30 mg/kg of a compound of Formula (I) to normotensive male Wistar rats. The animals are housed in climate-controlled conditions with a 12 h-light/dark cycle, and have free access to normal rat chow and drinking water. Blood is collected before and 3, 6 and 24 h after drug administration. Full blood is subjected to hematology using Advia Hematology system (Bayer Diagnostics, Zürich, Switzerland).
All data are presented as mean±SEM. Statistical analyses are performed by analysis of variance (ANOVA) using Statistica (StatSoft) and the Student-Newman-Keuls procedure for multiple comparisons. The null hypothesis is rejected when p<0.05.
Lymphocyte counts 6 h after oral administration have been measured for 2 out of 8 exemplified compounds and are in the range of −71% to −73% with an average of −72%.

human S1P3 receptor, sequence (Q99500 whole entry): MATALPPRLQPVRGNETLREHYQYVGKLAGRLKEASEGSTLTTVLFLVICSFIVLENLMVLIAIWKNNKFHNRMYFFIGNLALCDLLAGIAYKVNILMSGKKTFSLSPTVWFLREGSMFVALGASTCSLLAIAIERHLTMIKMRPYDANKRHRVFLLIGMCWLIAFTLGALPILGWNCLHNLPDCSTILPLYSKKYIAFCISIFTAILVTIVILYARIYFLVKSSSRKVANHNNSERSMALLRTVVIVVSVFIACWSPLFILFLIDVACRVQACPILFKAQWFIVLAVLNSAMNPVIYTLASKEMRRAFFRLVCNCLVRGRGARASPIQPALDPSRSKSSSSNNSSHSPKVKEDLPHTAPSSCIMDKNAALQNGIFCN

Compound | potency on S1P3 receptor compared to closest analog in D1 (human S1P3 receptor) | Lymphocyte counts (circulating lymphocytes) [%]
CCCc1cc(-c2nc(-c3cc(C)c(OC[C@@H](O)CNC(=O)CO)c(CC)c3)no2)ccn1 [Example 2, (S)—N-(3-(2-ethyl-4-(5-(2-propylpyridin-4-yl)-1,2,4-oxadiazol-3-yl)-6-methyl-phenoxy)-2-hydroxypropyl)-2-hydroxyacetamide] | clearly less potent | 
CCc1cc(-c2noc(-c3ccnc(CC(C)C)c3)n2)cc(C)c1OC[C@@H](O)CNC(=O)CO [Example 5, (S)—N-(3-(2-Ethyl-4-(5-(2-isobutylpyridin-4-yl)-1,2,4-oxadiazol-3-yl)-6-methylphenoxy)-2-hydroxypropyl)-2-hydroxyacetamide] | significantly less potent | 
CCc1cc(-c2noc(-c3ccnc(C(CC)CC)c3)n2)cc(C)c1OC[C@@H](O)CNC(=O)CO [Example 7, (S)—N-(3-(2-ethyl-4-(5-(2-(pentan-3-yl)-pyridin-4-yl)-1,2,4-oxadiazol-3-yl)-6-methylphenoxy)-2-hydroxypropyl)-2-hydroxyacetamide] | significantly less potent | −71
CCc1cc(-c2noc(-c3ccnc(C4CCCC4)c3)n2)cc(C)c1OC[C@@H](O)CNC(=O)CO [Example 8, (S)—N-(3-(2-ethyl-4-(5-(2-cyclopentylpyridin-4-yl)-1,2,4-oxadiazol-3-yl)-6-methylphenoxy)-2-hydroxypropyl)-2-hydroxyacetamide] | significantly less potent | −73
